For this assay, the target named is T1, androgen receptor (AR) (Homo sapiens, UniProt P10275).
T1 sequence (P10275 1-920): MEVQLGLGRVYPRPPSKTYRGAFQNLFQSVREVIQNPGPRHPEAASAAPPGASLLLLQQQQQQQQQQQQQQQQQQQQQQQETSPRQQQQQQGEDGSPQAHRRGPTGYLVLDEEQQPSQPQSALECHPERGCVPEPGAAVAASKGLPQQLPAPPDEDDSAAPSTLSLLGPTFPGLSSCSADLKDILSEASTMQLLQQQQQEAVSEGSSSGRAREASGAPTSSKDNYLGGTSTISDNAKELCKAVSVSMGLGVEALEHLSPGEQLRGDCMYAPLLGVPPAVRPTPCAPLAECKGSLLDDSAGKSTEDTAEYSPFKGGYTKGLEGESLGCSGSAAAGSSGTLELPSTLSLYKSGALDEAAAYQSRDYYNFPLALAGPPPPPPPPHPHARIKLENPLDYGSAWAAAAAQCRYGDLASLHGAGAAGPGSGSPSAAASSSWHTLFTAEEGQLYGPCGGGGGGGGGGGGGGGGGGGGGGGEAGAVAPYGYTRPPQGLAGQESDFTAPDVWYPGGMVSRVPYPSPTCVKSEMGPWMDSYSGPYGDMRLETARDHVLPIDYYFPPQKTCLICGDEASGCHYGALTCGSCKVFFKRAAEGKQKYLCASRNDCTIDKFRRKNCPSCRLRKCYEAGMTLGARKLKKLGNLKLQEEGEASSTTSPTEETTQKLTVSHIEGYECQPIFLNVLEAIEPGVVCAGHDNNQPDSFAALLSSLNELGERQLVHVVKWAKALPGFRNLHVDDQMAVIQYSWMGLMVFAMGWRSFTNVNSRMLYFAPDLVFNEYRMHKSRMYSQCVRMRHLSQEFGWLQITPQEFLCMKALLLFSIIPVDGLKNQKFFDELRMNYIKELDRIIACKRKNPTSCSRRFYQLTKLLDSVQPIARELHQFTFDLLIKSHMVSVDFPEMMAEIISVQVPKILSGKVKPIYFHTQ
The experiment in a line: Degradation of androgen receptor (AR) protein in VCaP cells by Western blot. In kind it is cell-based. Conditions: percentage of degraded AR at 100 nM, VCaP cells, 16 h. The method, then:
Determination of the Degradation Activity of the Compound on Androgen Receptor (AR) Protein by Western Blot
1) VCaP cells were subcultured in cell culture media, and then the cells in good growth condition were seeded in a 12-well plate at 1 ml/well (5×10^5 cells/well), and cultured overnight in a 37° C., 5% CO2 cell incubator. 2) The test compound was prepared into a 10 mM stock solution with dimethyl sulfoxide (DMSO). Prior to use, the solution was diluted 3 times with DMSO. […] of the diluted compound solution was added to the cell culture well (ensuring that the DMSO concentration in the culture system was 0.1%), and two wells were set for each concentration. The plate was gently shaken to mix. In addition, the experiment included negative control wells (containing equal amount of DMSO) and positive control wells. 3) After culturing 16 h. the cells were lysed with RIPA cell lysate, and the protein was extracted. The protein concentration was measured with BCA kit. 5-fold concentrated protein loading buffer was added, and after heated at 100° C. for 5 min. the sample was stored at −20° C. 4) for each well, 30 μg of protein was loaded on polyacrylamide gel for electrophoresis. 5) The protein was transferred from polyacrylamide gel to PVDF membrane, and then 5% skim milk was added to close for 1 h at room temperature. The first antibody (Androgen Receptor (D6F11) XP Rabbit mAb and Anti-β-Actin Rabbit mAb) was added and incubated overnight at 4° C. The membrane was washed with TBST solution three times. 10 min for each time. The secondary antibody (horseradish peroxidase labeled goat […]) was added and incubated at room temperature for 2 h, and then the membrane was washed with TBST solution three times. 10 min for each time.
Finally, ECL chemiluminescence solution was added, and then photos were taken with automatic chemiluminescence instrument to collect pictures for analysis.
For orientation: Immunoblotting shows a protein as a band on a membrane.

What is called inhibition is how much of the control response was suppressed. For the molecule `N#Cc1ccc(O[C@H]2CC[C@H](NC(=O)c3ccc(N4CC(N5CC6CN(c7cc8c(cc7F)C(=O)N(C7CCC(=O)NC7=O)C8=O)CC6C5)C4)nn3)CC2)cc1Cl` (some centres unmarked) [Compound 223, N-((1r,4r)-4-(3-chloro-4-cyanophenoxy)cyclohexyl)-6-(3-(5-(2-(2,6-dioxopiperidin-3-yl)-6-fluoro-1,3-dioxoisoindolin-5-yl)hexahydropyrrolo[3,4-c]pyrrol-2(1H)-yl)azitidin-1-yl)pyridazine-3-carboxamide], the inhibition at 0.1 µM is greater than 80%.
The same measure, in the same setting: the result for `N#Cc1ccc(O[C@H]2CC[C@H](NC(=O)c3ccc(N4CC5CN(C6CCN(c7cc8c(cc7F)C(=O)N(C7CCC(=O)NC7=O)C8=O)CC6)CC5C4)nn3)CC2)cc1Cl` (some centres unmarked) [Compound 67] reads less than 25%; that for `CC1(C)[C@H](NC(=O)c2ccc(N3CCC(NC4CCN(c5cc6c(cc5F)C(=O)N(C5CCC(=O)NC5=O)C6=O)CC4)CC3)nn2)C(C)(C)[C@H]1Oc1ccc(C#N)c(Cl)c1` (some centres unmarked) [Compound 291, N-((1r,3r)-3-(3-chloro-4-cyanophenoxy)-2,2,4,4-tetramethylcyclobutyl)-6-(4-((1-(2-(2,6-dioxopiperidin-3-yl)-6-fluoro-1,3-dioxoisoindoline)piperidine-4-yl)amino)piperidin-1-yl)pyridazine-3-formamide], 50 to 79%; that for `N#Cc1ccc(O[C@H]2CC[C@H](NC(=O)c3cnc(N4CCC(N5CC6(CCN(c7cc8c(cc7F)C(=O)N(C7CCC(=O)NC7=O)C8=O)CC6)C5)CC4)cn3)CC2)cc1Cl` (some centres unmarked) [Compound 228, N-((1r,4r)-4-(3-chloro-4-cyanophenoxy)cyclohexyl)-5-(4-(7-(2-(2,6-dioxopiperidin-3-yl)-6-fluoro-1,3-dioxoisoindolin-5-yl)-2,7-diazaspiro[3.5]nonan-2-yl)piperidin-1-yl)pyrazine-2-carboxamide], greater than 80%.
`CC1(C)[C@H](Oc2ccc(C#N)c(Cl)c2)C(C)(C)[C@H]1N1Cc2nc(C#CC3CCN(CC4CCN(c5cc6c(cc5F)C(=O)N(C5CCC(=O)NC5=O)C6=O)CC4)CC3)ccc2C1=O` (some centres unmarked) [Compound 333] showed an inhibition at 0.1 µM of 50 to 79%.
The same measure, in the same setting: the result for `N#Cc1ccc(O[C@H]2CC[C@H](NC(=O)c3cnc(N4CCC(CN5CC6CN(c7ccc8c(c7)C(=O)N(C7CCC(=O)NC7=O)C8=O)CC6C5)CC4)cn3)CC2)cc1Cl` (some centres unmarked) [Compound 254, N-((1r,4r)-4-(3-chloro-4-cyanophenoxy)cyclohexyl)-5-(4-((5-(2-(2,6-dioxopiperidin-3-yl)-1,3-dioxoisoindolin-5-yl)Hexahydropyrrolo[3,4-c]pyrrol-2(11H)-yl)methyl)piperidin-1-yl)pyrazine-2-carboxamide] reads 50 to 79%.
Regarding `N#Cc1ccc(OC2CCC(NC(=O)c3ccc(N4C[C@H]5CC(N6CCN(c7cc8c(cc7F)C(=O)N(C7CCC(=O)NC7=O)C8=O)CC6)C[C@H]5C4)nn3)CC2)cc1Cl` (stereo partly drawn) [Compound 292, N-((1s,4S)-4-(3-chloro-4-cyanophenoxy)cyclohexyl)-6-((3aR,5R,6aS)-5-(4-(2-(2,6-dioxopiperidin-3-yl)-6-fluoro-1,3-dioxoisoindolin-5-yl)piperazin-1-yl)hexahydrocyclopenta[c]pyrrole-2(1H)-yl)pyridazine-3-formamide], the “% degradation” value was “D (<25%)”.
In turn, `N#Cc1ccc(O[C@H]2CC[C@H](N3Cc4nc(C#CC5CCN(C6CCN(c7ccc8c(c7)C(=O)N(C7CCC(=O)NC7=O)C8=O)CC6)CC5)ccc4C3=O)CC2)cc1Cl` (some centres unmarked) [Compound 323] had an inhibition at 0.1 µM of less than 25%.
For the molecule `CC1(C)[C@H](Oc2ccc(C#N)c(Cl)c2)C(C)(C)[C@H]1N1Cc2nc(C#CC3CN(C4CCN(c5ccc6c(c5)C(=O)N(C5CCC(=O)NC5=O)C6=O)CC4)C3)ccc2C1=O` (some centres unmarked) [Compound 319, 2-Chloro-4-((1r,3r)-3-(2-((1-(1-(2-(2,6-dioxopiperidin-3-yl)-1,3-dioxoisoindolin-5-yl)piperidine-4-yl)azelaic acid-3-yl)ethynyl)-5-oxo-5H-pyrrolo[3,4-b]pyridin-6(7H)-yl)-2,2,4,4-tetramethylcyclobutoxy)benzonitrile], the inhibition at 0.1 µM was less than 25%.
With `N#Cc1ccc(O[C@H]2CC[C@H](NC(=O)c3cnc(N4CCC(CN5CCC(Nc6ccc7c(c6)C(=O)N(C6CCC(=O)NC6=O)C7=O)CC5)CC4)cn3)CC2)cc1Cl` (some centres unmarked) [Compound 146], the inhibition at 0.1 µM was greater than 80%.
In the case of `N#Cc1ccc(OC2CC3(CC(NC(=O)c4ccc(N5CCC(CN6CCN(c7ccc8c(c7)C(=O)N(C7CCC(=O)NC7=O)C8=O)CC6)CC5)nn4)C3)C2)cc1Cl` (centres unmarked) [Compound 109], the inhibition at 0.1 µM was less than 25%.
The same measure, in the same setting: the result for `CC1(C)[C@H](Oc2ccc(C#N)c(Cl)c2)C(C)(C)[C@H]1N1Cc2nc(C#CC3CCN(C4CN(c5ccc6c(c5)C(=O)N(C5CCC(=O)NC5=O)C6=O)C4)CC3)ccc2C1=O` (some centres unmarked) [Compound 317, 2-Chloro-4-((1r,3r)-3-(2-((1-(1-(2-(2,6-dioxopiperidin-3-yl)-6-fluoro-1,3-dioxoisoindolin-5-yl)azitidin-3-yl)piperidine-4-yl)ethynyl)-5-oxo-5H-pyrrolino [3,4-b]pyridin-6(7H)-yl)-2,2,4,4-tetramethylcyclobutoxy)benzonitrile] reads 50 to 79%; that for `N#Cc1ccc(O[C@H]2CC[C@H](NC(=O)c3ccc(N4CCN([C@@H]5C[C@@H]6CN(c7ccc8c(c7)C(=O)N(C7CCC(=O)NC7=O)C8=O)C[C@@H]6C5)CC4)nn3)CC2)cc1Cl` (stereo partly drawn) [Compound 298, N-((1r,4r)-4-(3-chloro-4-cyanophenoxy)cyclohexyl)-6-(4-((3aR,5R,6aS)-2-(2-(2,6-dioxopiperidin-3-yl)-1,3-dioxoisoindolin-5-yl)octahydrocyclopenta[c]pyrrol-5-yl)piperazin-1-yl)pyridazine-3-formamide], less than 25%; that for `N#Cc1ccc(O[C@H]2CC[C@H](NC(=O)c3ccc(N4CCC(CN5CCC6(C5)CN(c5ccc7c(c5)C(=O)N(C5CCC(=O)NC5=O)C7=O)C6)CC4)nn3)CC2)cc1Cl` (some centres unmarked) [Compound 185, N-((1r,4r)-4-(3-chloro-4-cyanophenoxy)cyclohexyl)-6-(4-((2-(2-(2,6-dioxopiperidin-3-yl)-1,3-dioxoisoindolin-5-yl)-2,6-diazaspiro[3.4]octan-6-yl)methyl)piperidin-1-yl)pyridazine-3-formamide], greater than 80%.
`N#Cc1ccc(O[C@H]2CC[C@H](N3Cc4nc(N5CCC(CN6CCC(Nc7ccc8c(c7)C(=O)N(C7CCC(=O)NC7=O)C8=O)CC6)CC5)ccc4C3=O)CC2)cc1Cl` (some centres unmarked) [Compound 173]: the inhibition at 0.1 µM is less than 25%.
In turn, `N#Cc1ccc(O[C@H]2CC[C@H](NC(=O)c3nnc(N4CC5(CCN(CC6CCN(c7ccc8c(c7)C(=O)N(C7CCC(=O)NC7=O)C8=O)CC6)CC5)C4)s3)CC2)cc1Cl` (some centres unmarked) [Compound 105, N-((1r,4r)-4-(3-chloro-4-cyanophenoxy)cyclohexyl)-5-(7-((1-(2-(2,6-dioxopiperidin-3-yl)-1,3-dioxoisoindolin-5-yl)piperidine-4-yl)methyl)-2,7-diazaspiro[3.5]nonan-2-yl)-1,3,4-thiadiazole-2-carboxamide] came in with an inhibition at 0.1 µM of 50 to 79%.
With `N#Cc1ccc(O[C@H]2CC[C@H](NC(=O)c3ccc(N4CCC(CN5CCC6(CC5)CN(c5cc7c(cc5F)C(=O)N(C5CCC(=O)NC5=O)C7=O)C6)CC4)nn3)CC2)cc1Cl` (some centres unmarked) [Compound 231, N-((1r,4r)-4-(3-chloro-4-cyanophenoxy)cyclohexyl)-6-(4-((2-(2-(2-,2,6-dioxopiperidin-3-yl)-6-fluoro-1,3-dioxoisoindolin-5-yl)-2,7-diazaspiro[3.5]nonan-7-yl)methyl)piperidin-1-yl)pyridazine-3-carboxamide], the inhibition at 0.1 µM was greater than 80%.

Values taken from patent US20230091225A1, “Bifunctional chimeric heterocyclic compounds for targeted degradation of androgen receptors and use thereof” (HINOVA PHARMACEUTICALS INC., priority 2019, published 2023).
